Source: US20260256799A1, “INHIBITORS FOR TREATING SOLID TUMOURS” (UNIVERSITY OF SOUTHAMPTON, priority 2023, published 2026)

Key:
[1] = system: ATM; assay: TGF-β1-dependent ATM activation in fibroblasts (Western blotting); format: cell-based, human
Experimental: Human NSCLC cell line H441, HNSCC SCC25, murine cancer cell line TC-1 (lung), MC38 (colon) and human fetal foreskin fibroblasts HFFF2 were purchased from European Collection of Cell Cultures (Public Health England) or ATCC; HNSCC 5PT [32] were provided by l. Mackenzie (Queen Mary University of London, UK). HEK-293T cells and IMR90 lung fibroblasts were provided by Jesus Gil (Imperial College, London, UK). SCC25 were grown in Ham's F12:DMEM (1:1 ratio) medium with 10% FBS (Calbiochem) and 292 μg/ml L-Glutamine. 5PT were cultured in keratinocyte growth medium. HEK-293T, H441, MC38, HFFF2, IMR90 and primary fibroblasts were grown in DMEM supplemented with 10% FBS and 292 μg/ml L-Glutamine. Primary fibroblasts were isolated as previously used at early passage (p1-10). C57BL/6 murine normal lung and colon fibroblasts (MLF and MCF respectively) were grown at 3% oxygen. TC-1 were cultured in RPMI supplemented with 10% FBS and 292 μg/ml L-Glutamine. All cell cultures were routinely tested for mycoplasma contamination. All cells were cultured using standard cell culture plates/flasks (Corning). HFFF2 or IMR90 cells were transfected with 25 μM On-Target pool siRNA (Thermo Scientific/Dharmacon) using Oligofectamine reagent (Life Technologies) as described. Stable knockdown was performed using retro/lentiviral mediated transduction of shRNA plasmids, as previously described followed by cell selection using 1 μg/ml puromycin for 5-7 days. NOX4-inducible HEK-293 cells (kindly provided by Vincent Jaquet) were treated with 1 μg/ml doxycycline. […]
(§1) Cells were lysed in ice-cold RIPA buffer [1% NP40, 150 mM NaCl, 25 mM Tris-HCl pH 7.5, 0.1% SDS, 1% Na-Deoxycolate, 1 mM EGTA, 1 mM EDTA, 1 mM Na-orthovanadate, 10 mM Na-fluoride, 2.5 mM Na-pyrophosphate, 1 mM p glycerophosphate+freshly added 1 mM PMSF, 20 mM N-Ethylmaleimide (NEM), 10 ng/ml Microcystin-LR, 0.12 μM Okadaic acid and phosphatase and protease inhibitor cocktails; all from Sigma]. Protein extracts were then centrifuged and supernatants quantified using Dc-Bio-Rad protein assay kit (Bio-Rad laboratories) as previously. […]

[2] = system: HFFF2; assay: ROS assay (DCFH-DA fluorescence); format: cell-based, human; conditions: GKT137831 40 μM, HFFF2 treated 48 hours with TGF-β1
Experimental: (§2) HFFF2s were plated in 24-well plates (1×10^3 or 5×10^3 cells/well) and treated with TGF-β1 the following day (and then every 3 days). Senescence was quantified at day 5 and 12 from TGF-β1 treatment determining the percentage of SA-β-Gal-positive cells (Sigma) of the total number of cells counterstained with Dapi (Sigma) as previously described. At least 200 cells/well in at least three independent experiments were counted per sample using a CKX41 Olympus fluorescent microscope. Cells were less than 50% confluent at the end of the experiment to avoid SA-β-Gal-false positive cells due to cell contact. ROS assay was performed as previously.

[3] = system: ATM; assay: ATM activation and dimerization in CAF nuclear extracts (Western blotting); format: cell-based, human; conditions: GKT137831 daily for 72 hours
Experimental: (§3) Human NSCLC cell line H441, HNSCC SCC25, murine cancer cell line TC-1 (lung), MC38 (colon) and human fetal foreskin fibroblasts HFFF2 were purchased from European Collection of Cell Cultures (Public Health England) or ATCC; HNSCC 5PT [32] were provided by l. Mackenzie (Queen Mary University of London, UK). HEK-293T cells and IMR90 lung fibroblasts were provided by Jesus Gil (Imperial College, London, UK). SCC25 were grown in Ham's F12:DMEM (1:1 ratio) medium with 10% FBS (Calbiochem) and 292 μg/ml L-Glutamine. 5PT were cultured in keratinocyte growth medium. HEK-293T, H441, MC38, HFFF2, IMR90 and primary fibroblasts were grown in DMEM supplemented with 10% FBS and 292 μg/ml L-Glutamine. Primary fibroblasts were isolated as previously used at early passage (p1-10). […]
as §1

[4] = molecular target: T1, NOX4 (Homo sapiens, UniProt Q9NPH5); conditions: cited from earlier work
T1 sequence (Q9NPH5 1-578): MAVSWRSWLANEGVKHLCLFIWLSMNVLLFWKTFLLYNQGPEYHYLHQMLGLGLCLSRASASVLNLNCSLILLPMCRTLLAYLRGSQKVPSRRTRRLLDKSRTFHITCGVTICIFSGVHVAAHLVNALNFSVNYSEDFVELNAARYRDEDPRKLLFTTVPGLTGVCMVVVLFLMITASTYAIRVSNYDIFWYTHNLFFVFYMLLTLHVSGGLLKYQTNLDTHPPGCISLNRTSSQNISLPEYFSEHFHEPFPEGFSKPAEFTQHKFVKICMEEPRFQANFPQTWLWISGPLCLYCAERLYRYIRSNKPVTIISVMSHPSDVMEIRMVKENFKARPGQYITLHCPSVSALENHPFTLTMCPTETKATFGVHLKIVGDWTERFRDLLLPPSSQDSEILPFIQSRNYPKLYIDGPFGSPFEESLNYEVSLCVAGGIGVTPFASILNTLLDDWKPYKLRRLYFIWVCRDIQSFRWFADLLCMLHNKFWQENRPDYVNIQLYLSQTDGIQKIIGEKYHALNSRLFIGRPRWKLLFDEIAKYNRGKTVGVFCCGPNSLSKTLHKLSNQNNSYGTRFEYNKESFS
T1 sequence (P13498 1-195 partner): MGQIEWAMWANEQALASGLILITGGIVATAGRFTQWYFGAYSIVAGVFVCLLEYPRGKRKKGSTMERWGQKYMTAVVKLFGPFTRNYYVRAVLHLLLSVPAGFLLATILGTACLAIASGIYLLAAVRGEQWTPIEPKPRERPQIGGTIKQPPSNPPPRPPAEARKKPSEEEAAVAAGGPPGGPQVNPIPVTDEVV

[5] = system: HFFF2 fibroblasts; assay: TGF-β1-induced myofibroblast differentiation of fibroblasts (Western blotting, immunofluorescence, Q-RT-PCR, collagen gel contraction); format: cell-based, human
Experimental: (§4) Human NSCLC cell line H441, HNSCC SCC25, murine cancer cell line TC-1 (lung), MC38 (colon) and human fetal foreskin fibroblasts HFFF2 were purchased from European Collection of Cell Cultures (Public Health England) or ATCC; HNSCC 5PT [32] were provided by l. Mackenzie (Queen Mary University of London, UK). HEK-293T cells and IMR90 lung fibroblasts were provided by Jesus Gil (Imperial College, London, UK). SCC25 were grown in Ham's F12:DMEM (1:1 ratio) medium with 10% FBS (Calbiochem) and 292 μg/ml L-Glutamine. 5PT were cultured in keratinocyte growth medium. HEK-293T, H441, MC38, HFFF2, IMR90 and primary fibroblasts were grown in DMEM supplemented with 10% FBS and 292 μg/ml L-Glutamine. Primary fibroblasts were isolated as previously used at early passage (p1-10). C57BL/6 murine normal lung and colon fibroblasts (MLF and MCF respectively) were grown at 3% oxygen. TC-1 were cultured in RPMI supplemented with 10% FBS and 292 μg/ml L-Glutamine. All cell cultures were routinely tested for mycoplasma contamination. All cells were cultured using standard cell culture plates/flasks (Corning). HFFF2 or IMR90 cells were transfected with 25 μM On-Target pool siRNA (Thermo Scientific/Dharmacon) using Oligofectamine reagent (Life Technologies) as described. Stable knockdown was performed using retro/lentiviral mediated transduction of shRNA plasmids, as previously described followed by cell selection using 1 μg/ml puromycin for 5-7 days. NOX4-inducible HEK-293 cells (kindly provided by Vincent Jaquet) were treated with 1 μg/ml doxycycline. Wild type and mutant (C2991L) ATM over-expression was carried out transfecting HFFF2 with Viafect (Promega) according to manufacturer's instructions and selected for 10 days with 4 mg/ml G418. p-Retrosuper-shATM (ATM #1:912) and pCDNA3.1-Flag-mut-ATM (C2991L; pTP1625 clone) were kindly provided by Yosef Shiloh and Tanya Paull respectively. pLKO.1 murine shATM (TRCN0000012643) and pCDNA3.1-Flag-wt-ATM (31985) were purchased from Sigma and Addgene respectively. 2 ng/ml TGF-3 (TGF-β1; R&D Systems; for 3 days) was used to induce myofibroblast differentiation. 10 ng/ml IL-1pR (R&D Systems) for 72 hours was used to induce iCAF differentiation. […] All the inhibitors were resuspended in DMSO. To trigger DDR activation and/or cell stress HFFF2 were either irradiated with 2-100Gy using 350Kv X-Ray Irradiation System (Faxitron), or treated with 100 ng/ml Neocarzinostatin for 2 hours (NCS; Sigma), with 2-10 mM H2O2(Fisher Scientific) or with 5 μg/ml Cisplatin (Sandoz) for 30 minutes.
5×10^3 HFFF2 were plated on permanox chamber slides (Thermo Scientific) and treated as described in the figure legends. Immunostaining was performed as previously. DAPI was used as nuclear counterstain and coverslips were mounted using fluorescent mounting solution (Dako). Images were taken using an Olympus IX81 fluorescence microscope and Xcellence program. DNA Damage foci were quantified from at least 8 non-overlapping FoV with ~300 cells in total per condition. Kruskall-Wallis statistical test was used to indicate the presence of a different distribution per time points in each group of foci. For collagen 1A1 deposition, 5×10^3 HFFF2 or MLF were seeded into chamber slides and treated with TGF-β1±inhibitors for a week (treated day 1 & day 4). Decellularisation was performed using 0.25M NH4OH in 50 mM Tris at 37° C. for 30 minutes and slides fixed with ice-cold 100% methanol at −20° C. followed by a blocking step. The remainderwas performed as previously described. SMA and Collagen 1A1 quantification was performed using Fiji. High resolution imaging of mouse tumours was carried out using an Axioscan.Z1 scanner (Zeiss).

[6] = system: HFFF2; assay: IL-1-induced iCAF gene expression (Q-RT-PCR); format: cell-based, human; conditions: KU55933 + 10 ng/ml IL-1p 72 hours
Experimental: as §3, with “(p1-10). C57BL/6 murine normal lung and colon fibroblasts (MLF and MCF respectively) were grown at 3% oxygen. TC-1 were cultured in RPMI supplemented with 10% FBS and 292 μg/ml L-Glutamine. All cell cultures were routinely tested for mycoplasma contamination. All cells were cultured using standard cell culture plates/flasks (Corning).” for “(p1-10).”
For Quantitative Real-time PCR (Q-RT-PCR), RNA was extracted and retro-transcribed as described previously and Q-RT-PCR was performed as previously. The mRNA expression levels were analyzed using the AACt relative quantitation method. […]

[7] = system: HNSCC and NSCLC CAF; assay: Established myoCAF phenotype of CAF cultured ex vivo; format: cell-based, human
Experimental: as §4
Cells were lysed in ice-cold RIPA buffer [1% NP40, 150 mM NaCl, 25 mM Tris-HCl pH 7.5, 0.1% SDS, 1% Na-Deoxycolate, 1 mM EGTA, 1 mM EDTA, 1 mM Na-orthovanadate, 10 mM Na-fluoride, 2.5 mM Na-pyrophosphate, 1 mM p glycerophosphate+freshly added 1 mM PMSF, 20 mM N-Ethylmaleimide (NEM), 10 ng/ml Microcystin-LR, 0.12 μM Okadaic acid and phosphatase and protease inhibitor cocktails; all from Sigma]. Protein extracts were then centrifuged and supernatants quantified using Dc-Bio-Rad protein assay kit (Bio-Rad laboratories) as previously. For nuclear-cytoplasmic protein extraction, the inventors used NE-PER Reagents according to manufacturer's instructions (Thermofisher). Equal amounts of protein were electrophoresed either in reducing (+Dithiothreitol, DTT) or in non-reducing conditions in 3-8% or 4-12% SDS-PAGE gels and electro blotted as previously.

[8] = system: H441, 5PT, SCC25 cells; assay: Transwell invasion assay towards fibroblast-conditioned media; format: cell-based, human
Experimental: CAF, HFFF2 or shCTR/shATM HFFF2 populations were treated with 13.3 μM KU55933+/−TGF-β1 for 7 days (treated day 1, day 4). Cells were washed twice with PBS and serum-free DMEM added for 72 hours. Fibroblast-conditioned medium (CM) was collected, centrifuged, filtered (0.2 μm), normalized according to cell number and used as a chemoattractant in the lower chamber of Transwell invasion assays as previously. Two-way Anova was used for statistical analysis.

[9] = system: HFFF2; assay: Senescence assay (SA-β-Gal); format: cell-based, human; conditions: continuous TGF-β1 administration, at 12 days
Experimental: as §2

[10] = GKT137831 40 μM, HFFF2, TGF-β1 24 hours

CN(C)c1cccc(-c2c3c(=O)n(-c4ccccc4Cl)[nH]c3cc(=O)n2C)c1 [GKT137831]
ATM downstream kinase activity [1, 10]: inhibited | ATM phosphorylation [1, 10]: inhibited | DNA damage monitored by pH2AX protein expression ([1]; GKT137831, HFFF2, TGF-β1 48 hours): decreased | ROS production [2]: suppressed | ATM dimerization ([3]; non-reducing conditions): inhibited | ATM activation ([3]; two HNSCC CAF and one NSCLC CAF): inhibited | myoCAF differentiation [4]: suppresses | myoCAF-mediated immunotherapy resistance [4]: overcomes

O=c1cc(-c2cccc3c2Sc2ccccc2S3)oc(N2CCOCC2)c1 [KU55933]
expression of SMA ([5]; KU55933 13.3 μM + TGF-β1 72 hours, HFFF2 and primary colon, skin, oral fibroblasts): inhibiting | SMA-positive stress fiber formation ([5]; KU55933 13.3 μM + TGF-β1, 3 days, HFFF2): inhibiting | collagen1 deposition ([5]; KU55933 13.3 μM + TGF-β1, 7 days, HFFF2, MLF one week): inhibiting | contraction of collagen gels ([5]; KU55933 13.3 μM + TGF-β1, HFFF2 or normal primary oral fibroblasts): inhibiting | myofibroblast differentiation ([5]; KU55933 13.3 μM co-treated with TGF-β1): suppressed differentiation | TGF-β1 induction of myoCAF genes (COL11A1, ASPN, ELN) ([5]; KU55933 + TGF-β1 72 hours, HFFF2, Q-RT-PCR): suppressed | IL-1p induction of most iCAF genes (CCL2, LIF, IL6, CXCL1) [6]: significantly upregulated | CAF phenotype ([7]; KU55933 for 7 days): reverted CAF to a more quiescent phenotype | expression of myofibroblast markers (SMA, collagen I, fibronectin) ([7]; KU55933 for 7 days): downregulating | contractility ([7]; collagen gel contraction, ATM inhibition by KU55933 or shRNA-knockdown): suppressing | invasion-promoting effects of myofibroblasts generated through TGF-β1 treatment ([8]; 5PT or SCC25 cells towards conditioned media of HFFF2 treated with TGF-β1 +/− KU55933 7 days): suppressed | myoCAF-dependent cancer cell invasion ([8]; H441 or 5PT cells towards conditioned media of NSCLC / HNSCC CAF treated with KU55933 13.3 μM 7 days): inhibiting

TGF-β1: cytokine (R&D Systems) used to induce myofibroblast differentiation
% range SA-β-Gal-positive cells [9]: 15.8-23.3%
